Data on one compound can be found in US6841236B2, “Articles containing thioxanthone dyes” (3M Innovative Properties Co., priority 2001, dated 2005).

A short description of data set [1]: Daytime color of polyurethane film with dye laminated to retroreflective sheeting. The format is physicochemical. Particulars: dye 0.2 wt.-% in aliphatic polyester polyurethane PN03.214, 0.1 mm film on Scotchlite 3970. On the procedure: (§1) The daytime color of each article was measured using a Labsphere BFC-450 Bispectral Colorimeter commercially available from Labsphere, North Sutton, N.H. The daytime chromaticity (x,y), total luminance factor (YT), and fluorescence luminance factor (YF; which is a measure of the fluorescent properties of the article) calculated for the CIE D65 and the CIE 1931 observer are provided in TABLE II
Examples 24-27 were prepared as described in Examples 8-10, except that the dyes of Examples 1, 3, 6-(2-hydroxy-ethoxy)-14H-anthra(2,1,9-mna)thioxanthene-14-one (described by Carlini et al.) and 6-methoxy-14H-anthra(2,1,9-mna)thioxanthene-14-one were independently used at 0.2 wt.-% loading in an aliphatic polyester polyurethane resin commercially available from Huntsman Polyurethanes, West Deptford, N.J., USA under the trade designation “PN03.214”. The extrusion conditions for the polyurethane were 154-191° C. and the resultant film thickness was 0.1 mm.
The resultant films were laminated to Scotchlite 3970 reflective sheeting on aluminum panels as described in Examples 8-10. Color values were measured as described in Examples 8-10 and the results set out in TABLE VII.

Data set [2] is described as follows: Daytime color of Paraloid B66 dye coating on retroreflective sheeting. It counts as physicochemical. On the procedure: as §1
Examples 19-21 were prepared by independently stirring 0.10 parts of the dyes of Examples 1 and 3 and 6-methoxy-14H-anthra(2,1,9-mna)thioxanthene-14-one in a clear vehicle solution of 64.8 parts Dowanol DPMA and 38.2 parts Paraloid B66.
The fluorescent dye solutions were coated on Scotchlite 3970 reflective sheeting using a #16 wire wound bar. The coating was air dried for 5 minutes and then dried in a 120° C. oven for 45 minutes. Color values were measured as described in Examples 8-10 and the results set out in TABLE V.

Where [3] appears, read: 0.10 parts dye in 64.8 parts Dowanol DPMA and 38.2 parts Paraloid B66, coated on Scotchlite 3970 with #16 wire wound bar, dried.

For the compound `CCCCCCCCOc1cc2c3ccccc3c(=O)c3ccc4c5ccccc5sc1c4c32` [Example 1, 6-n-Octyloxy-14H-anthra(2,1,9mna)thioxanthene-14-one], in data set [1], the “X (daytime chromaticity)” value is 0.5739, the “YF (fluorescence luminance factor)” value was found to be 11.83, the “YT (total luminance factor)” value was 17.46 and the “y (daytime chromaticity)” value came to 0.2692. In data set [2] (setting [3]), the “YF (fluorescence luminance factor)” value was 11.09, the “YT (total luminance factor)” value was found to be 30.10, the “x (daytime chromaticity)” value is 0.4381 and the “y (daytime chromaticity)” value is 0.2980. The “appearance of coated article” value in data set [2] (dye in Paraloid B66 coating on Scotchlite 3970) is “bright fluorescent pink appearance”.
